Experimental findings from PMC3795068, “Functional Evolution of a Multigene Family: Orthologous and Paralogous Pheromone Receptor Genes in the Turnip Moth, Agrotis segetum” (PLoS ONE, 2013) are described below.

Substitutions are numbered along the chain they refer to.

Assay in all cases: two-electrode voltage clamp, Xenopus oocytes, inward current
What all share (format): cell-based
(In general: In two-electrode clamp one electrode senses voltage and the other passes current.)

In one assay the target is T1, AsegOR10 (Agrotis segetum, UniProt U5KJI4).
T1 construct: full-length ORF, 432 aa, pCS2+ cRNA co-injected with Orco (473 aa) cRNA in Xenopus laevis oocytes; with Odorant receptor co-receptor (Orco)
T1 sequence (U5KJI4 1-432): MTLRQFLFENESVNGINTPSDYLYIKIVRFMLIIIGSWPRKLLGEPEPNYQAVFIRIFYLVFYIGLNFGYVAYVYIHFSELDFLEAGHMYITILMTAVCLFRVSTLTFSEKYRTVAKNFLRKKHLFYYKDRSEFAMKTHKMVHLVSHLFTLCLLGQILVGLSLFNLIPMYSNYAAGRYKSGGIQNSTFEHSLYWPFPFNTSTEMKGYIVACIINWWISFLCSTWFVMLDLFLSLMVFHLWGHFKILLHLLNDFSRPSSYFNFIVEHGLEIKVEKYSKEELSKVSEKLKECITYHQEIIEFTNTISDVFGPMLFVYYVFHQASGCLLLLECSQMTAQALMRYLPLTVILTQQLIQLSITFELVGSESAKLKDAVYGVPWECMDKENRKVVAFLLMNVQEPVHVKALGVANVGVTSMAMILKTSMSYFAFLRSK
T1 sequence (U5KJY5 1-473 partner): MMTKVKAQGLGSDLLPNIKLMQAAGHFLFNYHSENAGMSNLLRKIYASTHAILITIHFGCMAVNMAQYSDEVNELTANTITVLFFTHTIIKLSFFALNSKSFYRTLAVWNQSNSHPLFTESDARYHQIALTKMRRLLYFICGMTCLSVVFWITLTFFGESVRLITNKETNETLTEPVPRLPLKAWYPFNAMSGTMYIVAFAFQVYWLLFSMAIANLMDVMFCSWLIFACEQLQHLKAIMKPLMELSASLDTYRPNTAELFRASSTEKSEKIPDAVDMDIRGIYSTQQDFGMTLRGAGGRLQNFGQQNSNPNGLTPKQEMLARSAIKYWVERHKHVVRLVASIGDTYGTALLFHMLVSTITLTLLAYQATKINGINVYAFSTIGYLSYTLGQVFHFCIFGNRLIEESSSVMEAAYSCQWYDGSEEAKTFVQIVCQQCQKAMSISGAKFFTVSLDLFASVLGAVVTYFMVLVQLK
The note with it: agonist, 100 uM stimulus, 20 s, -80 mV, Ringer's pH 7.6, with Orco.

The target in the next assay is T2, AsegOR9 (Agrotis segetum, UniProt U5KJQ9).
T2 construct: full-length ORF, 433 aa, pCS2+ cRNA co-injected with Orco (473 aa) cRNA in Xenopus laevis oocytes; with Odorant receptor co-receptor (Orco)
T2 sequence (U5KJQ9 1-433): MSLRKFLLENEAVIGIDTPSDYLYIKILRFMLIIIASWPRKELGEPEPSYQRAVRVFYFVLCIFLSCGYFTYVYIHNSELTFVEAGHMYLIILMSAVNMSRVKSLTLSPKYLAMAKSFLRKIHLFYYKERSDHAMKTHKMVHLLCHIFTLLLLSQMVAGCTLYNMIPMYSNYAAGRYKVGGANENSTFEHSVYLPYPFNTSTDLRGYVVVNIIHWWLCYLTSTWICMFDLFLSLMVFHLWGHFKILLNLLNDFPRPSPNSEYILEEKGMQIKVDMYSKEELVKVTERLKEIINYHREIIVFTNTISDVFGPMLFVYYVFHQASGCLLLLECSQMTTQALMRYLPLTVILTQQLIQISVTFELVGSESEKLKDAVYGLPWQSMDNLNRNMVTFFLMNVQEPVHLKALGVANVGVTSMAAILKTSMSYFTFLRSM
T2 sequence (U5KJY5 1-473 partner): T1 sequence (U5KJY5 1-473 partner)
Conditions: agonist; 100 uM stimulus, 20 s, -80 mV, Ringer's pH 7.6, with Orco; dose response curve.

A further assay has as its target T3, AsegOR1 (Agrotis segetum, UniProt U5KK32).
T3 construct: full-length ORF, 432 aa, pCS2+ cRNA co-injected with Orco (473 aa) cRNA in Xenopus laevis oocytes; with Odorant receptor co-receptor (Orco)
T3 sequence (U5KK32 1-432): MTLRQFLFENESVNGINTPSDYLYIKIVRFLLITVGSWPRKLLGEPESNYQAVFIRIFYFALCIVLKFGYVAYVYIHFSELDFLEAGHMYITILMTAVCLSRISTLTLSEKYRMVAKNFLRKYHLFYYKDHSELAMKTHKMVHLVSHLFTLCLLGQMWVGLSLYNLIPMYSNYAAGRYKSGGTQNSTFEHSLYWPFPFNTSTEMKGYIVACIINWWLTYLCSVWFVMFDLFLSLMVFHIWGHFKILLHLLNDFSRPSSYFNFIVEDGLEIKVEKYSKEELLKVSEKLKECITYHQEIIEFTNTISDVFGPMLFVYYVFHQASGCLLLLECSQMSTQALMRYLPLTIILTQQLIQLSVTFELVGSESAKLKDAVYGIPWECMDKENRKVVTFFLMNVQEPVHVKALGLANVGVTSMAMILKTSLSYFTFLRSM
T3 sequence (U5KJY5 1-473 partner): T1 sequence (U5KJY5 1-473 partner)
The note with it: agonist; 100 uM stimulus, 20 s, -80 mV, Ringer's pH 7.6, with Orco; dose response curve.

In another assay the target is T4, AsegOR8 (Agrotis segetum, UniProt U5KJT2).
T4 construct: with Odorant receptor co-receptor (Orco)
T4 sequence (U5KJT2 1-430): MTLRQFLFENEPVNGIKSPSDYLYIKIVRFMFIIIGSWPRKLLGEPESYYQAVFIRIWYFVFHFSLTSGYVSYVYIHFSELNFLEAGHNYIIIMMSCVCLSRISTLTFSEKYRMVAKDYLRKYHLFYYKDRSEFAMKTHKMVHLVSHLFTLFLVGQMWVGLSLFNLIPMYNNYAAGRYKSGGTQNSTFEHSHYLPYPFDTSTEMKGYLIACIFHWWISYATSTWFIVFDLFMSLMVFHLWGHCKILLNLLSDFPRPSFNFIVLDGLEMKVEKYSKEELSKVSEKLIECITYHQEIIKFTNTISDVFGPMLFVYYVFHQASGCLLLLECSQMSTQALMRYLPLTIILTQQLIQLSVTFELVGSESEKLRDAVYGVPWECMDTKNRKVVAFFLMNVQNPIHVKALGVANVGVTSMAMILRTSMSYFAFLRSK
T4 sequence (U5KJY5 1-473 partner): T1 sequence (U5KJY5 1-473 partner)
Conditions: agonist; 100 uM stimulus, 20 s, -80 mV, Ringer's pH 7.6, with Orco; dose response curve.

The target in the next assay is T5, AsegOR6 (Agrotis segetum, UniProt U5KJY6).
T5 construct: full-length ORF, 430 aa, pCS2+ cRNA co-injected with Orco (473 aa) cRNA in Xenopus laevis oocytes; with Odorant receptor co-receptor (Orco)
T5 sequence (U5KJY6 1-430): T4 sequence (U5KJT2 1-430) with S48P, Q51K, V53I, F60L, S279L, R368K, A425T
T5 sequence (U5KJY5 1-473 partner): T1 sequence (U5KJY5 1-473 partner)
Conditions: agonist; 100 uM stimulus, 20 s, -80 mV, Ringer's pH 7.6, with Orco; dose response curve.

The target in the next assay is T6, AsegOR4 (Agrotis segetum, UniProt U5KJQ7).
T6 construct: full-length ORF, 424 aa, pCS2+ cRNA co-injected with Orco (473 aa) cRNA in Xenopus laevis oocytes; with Odorant receptor co-receptor (Orco)
T6 sequence (U5KJQ7 1-424): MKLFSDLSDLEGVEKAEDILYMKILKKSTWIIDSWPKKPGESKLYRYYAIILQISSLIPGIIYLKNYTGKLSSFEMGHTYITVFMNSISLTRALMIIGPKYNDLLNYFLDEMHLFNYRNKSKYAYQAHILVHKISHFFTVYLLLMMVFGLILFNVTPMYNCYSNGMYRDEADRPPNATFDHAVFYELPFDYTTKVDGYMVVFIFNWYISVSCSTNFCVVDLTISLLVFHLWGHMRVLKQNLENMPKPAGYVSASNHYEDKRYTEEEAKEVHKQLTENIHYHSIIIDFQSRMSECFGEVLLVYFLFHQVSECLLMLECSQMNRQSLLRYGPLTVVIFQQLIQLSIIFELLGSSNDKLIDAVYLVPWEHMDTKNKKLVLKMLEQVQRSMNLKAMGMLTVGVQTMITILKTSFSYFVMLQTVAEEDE
T6 sequence (U5KJY5 1-473 partner): T1 sequence (U5KJY5 1-473 partner)
The note with it: agonist; 100 uM stimulus, 20 s, -80 mV, Ringer's pH 7.6, with Orco; dose response curve.

Another assay addresses T7, AsegOR5 (Agrotis segetum, UniProt U5KJI3).
T7 construct: full-length ORF, 443 aa, pCS2+ cRNA co-injected with Orco (473 aa) cRNA in Xenopus laevis oocytes; with Odorant receptor co-receptor (Orco)
T7 sequence (U5KJI3 1-443): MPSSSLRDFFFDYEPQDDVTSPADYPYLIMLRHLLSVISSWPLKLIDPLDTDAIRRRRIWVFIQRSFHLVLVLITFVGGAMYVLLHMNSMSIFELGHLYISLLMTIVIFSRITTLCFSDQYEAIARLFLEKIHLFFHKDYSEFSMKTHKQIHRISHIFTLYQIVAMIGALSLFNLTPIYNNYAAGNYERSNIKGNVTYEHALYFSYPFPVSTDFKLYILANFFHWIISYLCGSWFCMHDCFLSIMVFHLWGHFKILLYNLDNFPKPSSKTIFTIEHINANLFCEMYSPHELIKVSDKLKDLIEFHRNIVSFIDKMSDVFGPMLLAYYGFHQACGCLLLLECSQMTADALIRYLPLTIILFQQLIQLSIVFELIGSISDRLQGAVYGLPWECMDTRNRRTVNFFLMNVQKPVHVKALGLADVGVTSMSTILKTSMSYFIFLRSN
T7 sequence (U5KJY5 1-473 partner): T1 sequence (U5KJY5 1-473 partner)
Conditions: agonist, 100 uM stimulus, 20 s, -80 mV, Ringer's pH 7.6, with Orco.

Another assay has as its target T8, AsegOR3 (Agrotis segetum, UniProt U5KJT1).
T8 construct: full-length ORF, 435 aa, pCS2+ cRNA co-injected with Orco (473 aa) cRNA in Xenopus laevis oocytes; with Odorant receptor co-receptor (Orco)
T8 sequence (U5KJT1 1-435): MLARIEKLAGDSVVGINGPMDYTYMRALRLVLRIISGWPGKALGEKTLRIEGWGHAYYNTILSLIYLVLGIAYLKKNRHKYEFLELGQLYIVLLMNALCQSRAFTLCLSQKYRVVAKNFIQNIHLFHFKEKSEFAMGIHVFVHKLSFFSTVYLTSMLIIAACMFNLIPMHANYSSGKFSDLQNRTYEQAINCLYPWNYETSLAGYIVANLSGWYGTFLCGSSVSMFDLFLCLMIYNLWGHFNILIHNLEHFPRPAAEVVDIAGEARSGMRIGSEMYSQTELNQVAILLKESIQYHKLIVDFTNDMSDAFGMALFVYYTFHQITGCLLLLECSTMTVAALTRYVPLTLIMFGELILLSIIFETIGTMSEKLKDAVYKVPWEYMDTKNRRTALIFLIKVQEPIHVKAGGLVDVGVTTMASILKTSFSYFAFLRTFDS
T8 sequence (U5KJY5 1-473 partner): T1 sequence (U5KJY5 1-473 partner)
Conditions: agonist; 100 uM stimulus, 20 s, -80 mV, Ringer's pH 7.6, with Orco.

In the next assay the target is T9, AsegOR7 (Agrotis segetum, UniProt U5KK33).
T9 construct: with Odorant receptor co-receptor (Orco)
T9 sequence (U5KK33 1-432): T3 sequence (U5KK32 1-432) with L31M, I33V, S101F, I103V, M114T, H131R, L134Y, I376V, K383T, E384K
T9 sequence (U5KJY5 1-473 partner): T1 sequence (U5KJY5 1-473 partner)
The note with it: agonist; 100 uM stimulus, 20 s, -80 mV, Ringer's pH 7.6, with Orco.

`CCCC/C=C\CCCCOC(C)=O` [Z5-10:OAc]: the “two-electrode voltage clamp, Xenopus oocytes, inward current” value (“two-electrode voltage clamp” below) on AsegOR10 (dose response curve) is “AsegOR10 responded to Z9-14:OAc and Z5-10:OAc but with low sensitivity”; at AsegOR9, “co-expressing AsegOR9 (Cluster I) and Aseg\Orco robustly and specifically responded to Z5-10:OAc”; at AsegOR1 it was “Oocytes co-expressing AsegOR1 and Aseg\Orco also responded to Z5-10:OAc”; on AsegOR8, “Different sensitivities of the six paralogues to the main pheromone component Z5-10:OAc”.

`CCCC/C=C\CCCCO` [Z5-10:OH]: the “two-electrode voltage clamp” value on AsegOR6 was “oocytes that showed the strongest response to another antagonist Z5-10:OH”; at AsegOR8 it was “Two of them (AsegOR6 and AsegOR8) showed strong responses to Z5-10:OH (Figure 5B)”.

As for `CCCC/C=C\CCCCCCOC(C)=O` [Z7-12:OAc], the “two-electrode voltage clamp” value on AsegOR4 is “AsegOR4 (Cluster IV) was specifically responsive to the pheromone component Z7-12:OAc”; on AsegOR5 it was “a much smaller response to Z7-12:OAc and marginal responses to other tested compounds”; on AsegOR3, “albeit with Z7-12:OAc standing out as the most active one”; at AsegOR7 it was “receptors for Z8-12:OAc and Z7-12:OAc (AsegOR1 and AsegOR7)”.

In the case of `CCC/C=C\CCCCCCCOC(C)=O` [Z8-12:OAc], the “two-electrode voltage clamp” value on AsegOR7 is “receptors for Z8-12:OAc and Z7-12:OAc (AsegOR1 and AsegOR7)”.

As to `CCCC/C=C\CCCCCCCCOC(C)=O` [Z9-14:OAc], the “two-electrode voltage clamp” value at AsegOR5 (dose response curve) is “AsegOR5 (Cluster II) showed the largest response to Z9-14:OAc”; on AsegOR10, “AsegOR10 responded to Z9-14:OAc and Z5-10:OAc but with low sensitivity”.
